Test results taken from patent US20250127896A1, “CHIMERIC TIM4 RECEPTORS AND USES THEREOF” (CERO THERAPEUTICS HOLDINGS, INC., priority 2021, published 2025).

Experiments:
[1] = test system: A2780 ovarian cancer cells; test: Viability and phosphatidylserine exposure of A2780 cells treated with PARP inhibitors (annexin V); assay type: cell-based, human
Experimental: Viability (FIG. 31A) and phosphatidylserine (PS) exposure (FIG. 31B) of A2780 cells treated with niraparib or olaparib (both at 0.25 to 6 μM) at 96 hours.
(§1) At day 0, media was exchanged and donor T cells from three subjects (FIG. 28) transduced with CER-1234, CER-1236, or control CER-1183 (FIG. 27A) were added at various effector:target ratios to A2780 cells treated with PARPi to assess chimeric Tim4 receptor-T cell activation, cytokine production, proliferation, and cytotoxic responses. Chimeric Tim4 receptor-T cells immunophenotyping and bulk supernatant analysis was performed on day 2 and day 5 following initiation of co-culture.
Phosphatidylserine exposure on A2780 ovarian cancer cells upon treatment with the small molecule PARP inhibitors niraparib or olaparib was evaluated by annexin v staining to determine the appropriate drug dose. Phosphatidylserine targeting Tim-4 CER constructs designed to enhance cytotoxicity and target-dependent tumor cell fragment uptake were engineered. […] CER-1250 has the same intracellular signaling domains as CER1236 but has a mutated IgV domain with AAAA substitution to abrogate phosphatidylserine binding. Niraparib (0.5 μM) and olaparib (1.5 μM) were used to expose phosphatidylserine on the surface of A2780 cells for CER T cell recognition and cytotoxicity, T-cell activation, and cytokine responses were evaluated. Uptake of antigen by CER-1236 T cells was modeled with human papilloma virus E7 antigen-expressing squamous carcinoma (SCC152) TMEM30A phospholipid flippase knockout cells. […] E7 antigen presentation by CER-1236 T cells was assayed by surface expression of HLA-DR, a marker of T cell activation, on autologous HLA-A2-restricted E7 TCR T cells.
The induction of surface phosphatidylserine expression on A2780 ovarian cells treated with the PARP inhibitors olaparib and niraparib was measured by flow cytometry (FC) using annexin V.

[2] = test system: Kuramochi cells; test: Kuramochi co-culture with chimeric Tim4 receptor T cells and Niraparib (IncuCyte); assay type: cell-based; conditions: Niraparib alone
Experimental: (§2) FIG. 7A: Flow cytometry measurement of surface PtdSer. Kuramochi cells were treated with 1.56 or 25 μM Niraparib or with equivalent volume of DMSO (control). 48 hours later samples were trypsinized and stained using a Tim4-Fc followed by a fluorescently-labeled secondary antibody to the Tim4-Fc. FIG. 7B: Kuramochi cells pre-treated for ˜20 hours with 1.56 μM Niraparib were co-cultured with pCTX133 and Untransduced CD4 T cells from donor 32 at a 2:1 T cell: Kuramochi ratio and a final Niraparib concentration of 1.56 μM. […] All data were collected via IncuCyte.
(§3) In ovarian tumors, poly (ADP-ribose) polymerase (PARP) inhibitors, such as Niraparib, are clinically approved drugs which target DNA damage response pathways. Responses are rarely complete, with relapse common after treatment. To induce Ptd-Ser exposure, BRCA-2 mutated Kuramochi cell line was treated with therapeutic doses of the PARP inhibitor Niraparib.

[3] = test system: A2780 cells; conditions: compared to untreated
Experimental: FIG. 34B: At 120 hours, the ratio of cells remaining in treated samples compared to untreated A2780 samples was quantified using the incucyte data from FIG. 34A. FIG. 34C: Proliferation of CER T cells in co-culture assays.
as §1
CER T-cell cytotoxic function was evaluated using the Incucyte® live-cell analysis system in co-culture assays with A2780 cells. A2780 cells engineered to constitutively express mCherry were pretreated with 1.5 μM olaparib, 0.5 μM niraparib or no drug for 96 hours. CER T cells (expanded for 6 days after transduction) in T-cell optimizer media containing IL-2, IL-7, and IL-15 were co-cultured with A2780 cells at an effector:target (E:T) ratio of 1:2 in the presence of the same concentrations of olaparib or niraparib.

[4] = test system: Kuramochi cells; conditions: 1.56 or 25 μM Niraparib, 48 hours
Experimental: as §2, §3

## NC(=O)c1cccc2cn(-c3ccc([C@@H]4CCCNC4)cc3)nc12 [Niraparib]
[1]; A2780 cells
  effective concentration that killed 25% cells (EC25): 500 nM
[1]; subtherapeutic doses, 96 hours
  phosphatidylserine exposure on viable A2780 cells: induce phosphatidylserine exposure on viable A2780 cells
[2]
  growth of Kuramochi cells: effective in inhibiting growth of Kuramochi cells
[3]
  A2780 cells eliminated, single agent: 23%
[4]
  surface PtdSer (membrane phospholipid symmetry): elicits changes in membrane phospholipid symmetry, in a dose dependent manner
